The target of one data set is T1, Coagulation factor VII (Homo sapiens, UniProt P08709).
T1 sequence (P08709 whole entry): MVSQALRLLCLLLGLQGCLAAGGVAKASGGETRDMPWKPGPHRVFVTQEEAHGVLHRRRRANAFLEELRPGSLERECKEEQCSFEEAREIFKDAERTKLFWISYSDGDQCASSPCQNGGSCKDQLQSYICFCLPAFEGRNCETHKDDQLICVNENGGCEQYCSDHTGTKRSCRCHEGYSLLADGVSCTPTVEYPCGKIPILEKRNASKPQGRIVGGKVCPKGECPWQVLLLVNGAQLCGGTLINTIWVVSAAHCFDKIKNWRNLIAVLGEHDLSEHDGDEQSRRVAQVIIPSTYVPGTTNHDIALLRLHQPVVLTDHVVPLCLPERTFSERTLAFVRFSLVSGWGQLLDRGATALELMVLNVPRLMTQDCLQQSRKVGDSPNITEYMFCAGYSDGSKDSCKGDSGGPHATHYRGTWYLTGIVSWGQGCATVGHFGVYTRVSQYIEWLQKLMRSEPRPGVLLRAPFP
Format: single protein.

The nature of data set [1]: Dose normalized AUC in C57BL/6 mouse at 1 mg/kg, iv by LC-MS/MS analysis. Format: ADME, organism-based. To be noted: in vivo.
Data set [2] concerns the target Voltage-gated inwardly rectifying potassium channel KCNH2 (Homo sapiens, UniProt Q12809).
The target of a further data set is Plasminogen (Homo sapiens, UniProt P00747). Type of data set: single protein.
Data set [3] is described as follows: Lipophilicity, log D of compound at pH 6.8. Format: physicochemical. To be noted: buffer.
A short description of data set [4]: Dose normalized Cmax in C57BL/6 mouse at 1 mg/kg, iv bolus injection or 10 mg/kg, po by LC-MS/MS analysis. Type of data set: ADME, organism-based. The conditions noted are these: in vivo.
Data set [5] is described as follows: Volume of distribution at steady state in C57BL/6 mouse at 1 mg/kg, iv bolus injection or 10 mg/kg, po by LC-MS/MS analysis. Type of data set: ADME, organism-based. The conditions noted are these: in vivo, read-out: Vdss.
Data set [6] in a line: Terminal half life in C57BL/6 mouse at 1 mg/kg, iv bolus injection or 10 mg/kg, po by LC-MS/MS analysis. The conditions noted are these: in vivo, read-out: beta t1/2 (converted). Type of data set: ADME, organism-based.
A further data set has as its target Plasma kallikrein (Homo sapiens, UniProt P03952). Format: single protein.
The nature of data set [7]: Terminal half life in C57BL/6 mouse at 0.4 mg/kg, iv bolus injection or 3 mg/kg, po by LC-MS/MS analysis. Type of data set: ADME, organism-based. To be noted: in vivo, read-out: beta t1/2 (converted).
The target in the next data set is Prothrombin (Homo sapiens, UniProt P00734). Type of data set: single protein.
A further data set concerns the target Coagulation factor X (Homo sapiens, UniProt P00742). Type of data set: single protein.
In data set [8] the target is T2, Coagulation factor XI (Homo sapiens, UniProt P03951). Kind of data set: Inhibition of […] human plasma F11a catalytic domain expressed in Escherichia coli strain BL21(DE3) using D-Leu-Pro-Arg*Rh110-D-Pro as substrate preincubated for 60 mins followed by substrate addition and measured after 60 mins by fluorescence assay.
Data set [9] can be described thus: Oral bioavailability in C57BL/6 mouse at 3 mg/kg by LC-MS/MS analysis. Type of data set: ADME, organism-based. The conditions noted are these: in vivo.
Data set [10] deals with Tissue-type plasminogen activator (Homo sapiens, UniProt P00750). Format: single protein.
Data set [11] has as its target T3, Urokinase-type plasminogen activator (Homo sapiens, UniProt P00749). Type of data set: single protein.
A short description of data set [12]: Dose normalized AUC in C57BL/6 mouse at 0.4 mg/kg, iv bolus injection by LC-MS/MS analysis. Format: ADME, organism-based. To be noted: in vivo.
Data set [13] concerns the target T2, Coagulation factor XI. Kind of data set: Inhibition of human F11a using D-Leu-Pro-Arg*Rh110-D-Pro as substrate preincubated for 60 mins followed by substrate addition and measured after 60 mins by fluorescence assay.
Data set [14] can be described thus: Dose normalized AUC in C57BL/6 mouse at 3 mg/kg, po by LC-MS/MS analysis. Format: ADME, organism-based. To be noted: in vivo.
Data set [15] is described as follows: Volume of distribution at steady state in C57BL/6 mouse at 0.4 mg/kg, iv bolus injection or 3 mg/kg, po by LC-MS/MS analysis. Type of data set: ADME, organism-based. To be noted: in vivo, read-out: Vdss.
A short description of data set [16]: Tmax in C57BL/6 mouse at 0.4 mg/kg, iv bolus injection or 3 mg/kg, po by LC-MS/MS analysis. Format: ADME, organism-based. The conditions noted are these: in vivo.
The next data set concerns the target Complement factor D (Homo sapiens, UniProt P00746). Format: single protein.
Data set [17] can be described thus: Dose normalized Cmax in C57BL/6 mouse at 0.4 mg/kg, iv bolus injection or 3 mg/kg, po by LC-MS/MS analysis. Format: ADME, organism-based. To be noted: in vivo.
The target in the next data set is Coagulation factor IX (Homo sapiens, UniProt P00740). Type of data set: single protein.
The species entered for another data set is Homo sapiens. Kind of data set: Selectivity ratio of IC50 for inhibition of human complement FD to IC50 for inhibition of human F11a.
A short description of data set [18]: Clearance in C57BL/6 mouse at 0.4 mg/kg, iv bolus injection or 3 mg/kg, po by LC-MS/MS analysis. Type of data set: ADME, organism-based. The conditions noted are these: in vivo.
For data set [19] the following is noted: human, caco-2; BLD = below limit of detection.
The next data set in a line: in vitro. The conditions noted are these: human, Caco-2.
A short description of the next data set: physchem. To be noted: aqueous buffer, pH 6.8.
Data set [20] is described as follows: Volume of distribution at steady state in C57BL/6 mouse at 1 mg/kg, iv bolus injection or 3 mg/kg, po by LC-MS/MS analysis. Format: ADME, organism-based. To be noted: in vivo, read-out: Vdss.
Data set [21] in a line: Clearance in C57BL/6 mouse at 1 mg/kg, iv bolus injection or 3 mg/kg, po by LC-MS/MS analysis. Type of data set: ADME, organism-based. To be noted: in vivo.
A short description of data set [22]: Dose normalized Cmax in C57BL/6 mouse at 1 mg/kg, iv bolus injection or 3 mg/kg, po by LC-MS/MS analysis. Format: ADME, organism-based. The conditions noted are these: in vivo.
Data set [23] in a line: Terminal half life in C57BL/6 mouse at 1 mg/kg, iv bolus injection or 3 mg/kg, po by LC-MS/MS analysis. Type of data set: ADME, organism-based. The conditions noted are these: in vivo, read-out: beta t1/2 (converted).
The target of data set [24] is T3, Urokinase-type plasminogen activator. Format: ADME.
In data set [25] the target is Synaptic vesicular amine transporter (Homo sapiens, UniProt Q05940). Kind of data set: Inhibition of VMAT2 (unknown origin).
Data set [26] has as its system Plasma. Kind of data set: Effect on coagulation in human plasma assessed as concentration required to double the prothrombin time by thromboplastin-DS reagent based automated coagulometric method. Type of data set: ADME, cell-free.
Data set [27] deals with Plasma. Kind of data set: Anticoagulant activity in human plasma assessed as concentration required to double the activated partial thromboplastin time incubated for 3 mins followed by calcium chloride addition by aPTT-s reagent based automated coagulometric method. Type of data set: functional.
Data set [28] deals with Prostaglandin G/H synthase 1 (Homo sapiens, UniProt P23219). Kind of data set: Inhibition of COX1 (unknown origin).
The target in data set [29] is 3',5'-cyclic-AMP phosphodiesterase 4D (Homo sapiens, UniProt Q08499). Kind of data set: Inhibition of PDE4D (unknown origin).

In brackets after ≈: the same amount, converted by molar mass.

Complement factor D, sequence (P00746 whole entry): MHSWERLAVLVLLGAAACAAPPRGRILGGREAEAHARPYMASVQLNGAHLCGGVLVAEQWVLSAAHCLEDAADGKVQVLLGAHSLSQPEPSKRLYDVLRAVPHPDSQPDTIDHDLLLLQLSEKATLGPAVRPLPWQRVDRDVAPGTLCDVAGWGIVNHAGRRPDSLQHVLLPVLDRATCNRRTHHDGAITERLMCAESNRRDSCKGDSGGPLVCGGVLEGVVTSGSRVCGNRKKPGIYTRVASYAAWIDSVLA
T2 sequence (P03951 19-387 limits assumed): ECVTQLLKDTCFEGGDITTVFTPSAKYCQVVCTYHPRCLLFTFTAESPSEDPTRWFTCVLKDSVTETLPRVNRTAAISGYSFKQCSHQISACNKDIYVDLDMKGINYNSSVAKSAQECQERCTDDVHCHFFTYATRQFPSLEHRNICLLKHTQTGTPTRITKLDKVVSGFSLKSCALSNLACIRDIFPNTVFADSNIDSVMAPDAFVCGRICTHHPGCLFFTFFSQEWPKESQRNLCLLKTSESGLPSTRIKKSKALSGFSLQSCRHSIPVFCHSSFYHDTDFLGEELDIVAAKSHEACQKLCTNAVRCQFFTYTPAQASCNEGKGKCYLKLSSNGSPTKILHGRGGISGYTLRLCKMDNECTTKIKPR
T2 sequence (P03951 388-625 limits assumed): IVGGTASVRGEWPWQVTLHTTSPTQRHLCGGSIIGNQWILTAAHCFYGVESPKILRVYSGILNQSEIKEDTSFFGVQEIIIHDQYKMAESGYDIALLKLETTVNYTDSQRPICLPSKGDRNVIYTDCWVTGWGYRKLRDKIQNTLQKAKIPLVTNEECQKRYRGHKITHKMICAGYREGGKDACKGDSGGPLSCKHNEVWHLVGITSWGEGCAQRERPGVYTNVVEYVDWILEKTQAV
Plasma kallikrein, sequence (P03952 20-390 limits assumed): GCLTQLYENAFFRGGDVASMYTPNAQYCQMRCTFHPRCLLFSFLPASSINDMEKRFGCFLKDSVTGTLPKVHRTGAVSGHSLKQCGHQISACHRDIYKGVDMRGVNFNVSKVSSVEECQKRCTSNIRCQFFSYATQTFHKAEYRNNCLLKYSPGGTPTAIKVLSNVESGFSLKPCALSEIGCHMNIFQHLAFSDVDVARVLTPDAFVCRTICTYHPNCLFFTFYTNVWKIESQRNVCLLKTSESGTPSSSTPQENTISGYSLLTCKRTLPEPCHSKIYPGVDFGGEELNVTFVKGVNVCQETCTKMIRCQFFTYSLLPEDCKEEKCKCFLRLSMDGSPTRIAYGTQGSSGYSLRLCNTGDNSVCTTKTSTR
Plasma kallikrein, sequence (P03952 391-638 limits assumed): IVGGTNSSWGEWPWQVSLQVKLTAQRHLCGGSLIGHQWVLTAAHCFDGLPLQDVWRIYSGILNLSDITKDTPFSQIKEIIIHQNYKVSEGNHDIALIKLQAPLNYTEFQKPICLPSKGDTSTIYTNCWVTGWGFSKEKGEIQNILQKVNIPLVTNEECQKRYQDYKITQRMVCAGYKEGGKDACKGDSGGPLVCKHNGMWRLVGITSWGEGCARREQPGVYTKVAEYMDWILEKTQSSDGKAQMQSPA
Plasminogen, sequence (P00747 97-580 limits assumed): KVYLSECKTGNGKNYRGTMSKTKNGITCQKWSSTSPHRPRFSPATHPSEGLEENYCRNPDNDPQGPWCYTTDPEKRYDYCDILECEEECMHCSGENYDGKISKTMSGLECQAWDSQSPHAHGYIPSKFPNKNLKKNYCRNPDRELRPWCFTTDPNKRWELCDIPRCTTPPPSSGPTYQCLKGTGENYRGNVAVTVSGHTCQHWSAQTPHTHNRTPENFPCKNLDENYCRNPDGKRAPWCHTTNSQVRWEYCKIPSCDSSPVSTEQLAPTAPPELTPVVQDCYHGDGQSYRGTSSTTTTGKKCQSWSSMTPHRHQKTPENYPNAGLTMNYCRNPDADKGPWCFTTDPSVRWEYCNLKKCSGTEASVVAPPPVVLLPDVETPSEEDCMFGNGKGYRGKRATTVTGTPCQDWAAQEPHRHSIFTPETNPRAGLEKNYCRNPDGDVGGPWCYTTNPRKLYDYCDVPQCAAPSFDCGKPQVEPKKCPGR
Plasminogen, sequence (P00747 581-810 limits assumed): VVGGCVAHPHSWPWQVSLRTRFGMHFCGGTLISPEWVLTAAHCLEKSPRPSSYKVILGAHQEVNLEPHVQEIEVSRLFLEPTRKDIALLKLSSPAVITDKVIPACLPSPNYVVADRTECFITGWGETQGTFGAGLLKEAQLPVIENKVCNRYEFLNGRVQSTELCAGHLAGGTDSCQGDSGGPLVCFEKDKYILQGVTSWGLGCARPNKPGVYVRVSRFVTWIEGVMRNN
Tissue-type plasminogen activator, sequence (P00750 whole entry): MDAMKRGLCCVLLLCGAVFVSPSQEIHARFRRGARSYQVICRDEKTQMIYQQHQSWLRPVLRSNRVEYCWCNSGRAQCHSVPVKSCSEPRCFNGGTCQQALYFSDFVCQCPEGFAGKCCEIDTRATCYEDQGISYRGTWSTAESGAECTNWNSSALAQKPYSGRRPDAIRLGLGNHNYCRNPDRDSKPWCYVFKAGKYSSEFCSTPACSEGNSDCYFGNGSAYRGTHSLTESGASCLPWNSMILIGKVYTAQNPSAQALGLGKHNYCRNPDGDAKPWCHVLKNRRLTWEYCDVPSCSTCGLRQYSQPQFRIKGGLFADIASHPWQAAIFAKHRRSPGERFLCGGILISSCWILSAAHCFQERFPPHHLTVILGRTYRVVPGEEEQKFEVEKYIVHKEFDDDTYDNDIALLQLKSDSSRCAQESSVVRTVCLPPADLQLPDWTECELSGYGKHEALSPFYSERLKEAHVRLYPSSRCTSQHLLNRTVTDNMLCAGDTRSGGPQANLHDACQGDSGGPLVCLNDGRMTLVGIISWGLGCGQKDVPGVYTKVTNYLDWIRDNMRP
Coagulation factor IX, sequence (P00740 47-191 limits assumed): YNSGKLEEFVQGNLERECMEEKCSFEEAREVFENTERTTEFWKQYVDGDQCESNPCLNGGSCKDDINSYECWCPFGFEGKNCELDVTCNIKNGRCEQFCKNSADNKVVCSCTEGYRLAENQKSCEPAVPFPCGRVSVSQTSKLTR
Coagulation factor IX, sequence (P00740 227-461 limits assumed): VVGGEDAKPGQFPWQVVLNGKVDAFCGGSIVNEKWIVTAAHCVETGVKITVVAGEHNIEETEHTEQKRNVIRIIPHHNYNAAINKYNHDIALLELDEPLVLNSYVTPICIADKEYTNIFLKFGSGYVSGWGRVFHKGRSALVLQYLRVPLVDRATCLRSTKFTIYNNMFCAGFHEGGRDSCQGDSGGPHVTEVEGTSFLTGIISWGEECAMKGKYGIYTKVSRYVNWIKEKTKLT
Coagulation factor X, sequence (P00742 41-179 limits assumed): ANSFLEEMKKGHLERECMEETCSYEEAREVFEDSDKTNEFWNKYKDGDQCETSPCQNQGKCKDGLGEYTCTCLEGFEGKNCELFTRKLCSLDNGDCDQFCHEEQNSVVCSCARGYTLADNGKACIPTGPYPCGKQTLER
Coagulation factor X, sequence (P00742 235-488 limits assumed): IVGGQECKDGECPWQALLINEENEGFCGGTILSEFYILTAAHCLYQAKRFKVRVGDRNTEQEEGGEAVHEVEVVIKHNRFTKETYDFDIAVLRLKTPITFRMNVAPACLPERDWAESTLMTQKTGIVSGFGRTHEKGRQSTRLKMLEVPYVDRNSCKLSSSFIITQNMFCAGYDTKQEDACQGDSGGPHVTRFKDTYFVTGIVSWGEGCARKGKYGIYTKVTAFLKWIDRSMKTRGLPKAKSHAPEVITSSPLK
Prostaglandin G/H synthase 1, sequence (P23219 whole entry): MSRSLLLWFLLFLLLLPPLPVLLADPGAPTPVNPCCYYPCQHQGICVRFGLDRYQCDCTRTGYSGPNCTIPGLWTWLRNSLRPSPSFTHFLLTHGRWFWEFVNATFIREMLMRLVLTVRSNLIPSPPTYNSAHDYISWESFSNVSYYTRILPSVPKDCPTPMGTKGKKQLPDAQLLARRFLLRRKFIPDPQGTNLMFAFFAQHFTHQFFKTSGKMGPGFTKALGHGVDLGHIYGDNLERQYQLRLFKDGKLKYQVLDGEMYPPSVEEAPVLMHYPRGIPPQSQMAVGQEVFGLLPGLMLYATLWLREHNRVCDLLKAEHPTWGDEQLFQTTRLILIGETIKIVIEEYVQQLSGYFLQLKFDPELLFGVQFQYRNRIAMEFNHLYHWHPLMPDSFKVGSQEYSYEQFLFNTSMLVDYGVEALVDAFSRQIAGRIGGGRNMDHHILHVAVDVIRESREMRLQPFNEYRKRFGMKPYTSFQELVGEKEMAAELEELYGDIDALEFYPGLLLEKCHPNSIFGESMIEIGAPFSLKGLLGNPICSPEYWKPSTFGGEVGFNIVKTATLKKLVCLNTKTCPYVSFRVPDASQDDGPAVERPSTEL
Synaptic vesicular amine transporter, sequence (Q05940 whole entry): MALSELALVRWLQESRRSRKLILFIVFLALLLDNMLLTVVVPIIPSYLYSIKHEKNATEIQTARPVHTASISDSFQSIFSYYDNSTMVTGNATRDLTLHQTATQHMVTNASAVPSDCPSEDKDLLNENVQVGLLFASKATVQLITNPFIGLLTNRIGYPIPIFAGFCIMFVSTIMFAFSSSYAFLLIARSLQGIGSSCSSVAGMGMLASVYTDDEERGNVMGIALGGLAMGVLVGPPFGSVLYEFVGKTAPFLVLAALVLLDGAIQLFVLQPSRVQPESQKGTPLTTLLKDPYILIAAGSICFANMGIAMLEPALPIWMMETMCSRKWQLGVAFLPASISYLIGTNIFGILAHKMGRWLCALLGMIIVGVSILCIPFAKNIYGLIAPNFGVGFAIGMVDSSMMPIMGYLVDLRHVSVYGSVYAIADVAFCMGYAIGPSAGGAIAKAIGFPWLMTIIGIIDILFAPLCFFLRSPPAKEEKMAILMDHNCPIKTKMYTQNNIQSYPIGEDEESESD

As to `NCc1cccc(-c2cccc(COc3ccccc3CC(=O)O)c2)c1`, the IC50 against Coagulation factor VII was 1.4 µM; in data set [2], more than 30 µM; at Plasminogen it was 2.2 µM; against Plasma kallikrein, 3.1 µM. In addition, in [1], the AUC/dose amounted to 3284 nM·h. Further, the logD in data set [3] turned out to be 1.91. The Cmax/dose in [4] is 2591 nM. For the same compound, the Vd in [5] was found to be 0.7 L/kg. Further, the half-life in data set [6] was 1.6 h.
As for `CC(C)c1cc(CCN2CCc3cccc(C(=O)O)c32)cc(-c2ccc3c(c2)[C@H](N)CO3)c1`, the IC50 against Coagulation factor VII stood at 6.23 µM; on Prothrombin it was 3.08 µM; against Coagulation factor X, 1.83 µM; at Coagulation factor XI [8], 0.22 µM; against Plasminogen, 2.56 µM; in data set [10], 0.66 µM. The IC50 in [11] came out at 0.52 µM; on Coagulation factor XI [13], 0.006 µM; against Complement factor D, 4.41 µM; on Coagulation factor IX, 3.3 µM; against Plasma kallikrein, 0.058 µM. For the same compound, in [7], the half-life was 9.2 h. In data set [9], this compound came in with a bioavailability of 36%. Further, the figures for the AUC/dose in data set [12] and in data set [14] were 38652 nM·h and 14041 nM·h, respectively. Moreover, in data set [15], the Vd came to 0.4 L/kg. In addition, the Tmax in data set [16] came out at 0.7 h. The compound further gave a Cmax/dose in data set [17] of 1495 nM. In addition, the Ratio IC50 in the data set filed under Homo sapiens stood at 700. This compound returned a clearance in [18] of 1 mL/min/kg.
With `CC(C)(C(N)=O)c1cc(COc2ccccc2CC(=O)O)cc(-c2ccc3c(c2)[C@H](N)CO3)c1`, in data set [19], the Papp result is reported as “Bld”. The Papp B→A in “in vitro” is 4 ×10⁻⁶ cm/s. Besides, the solubility (thermodynamic) in the data set “physchem” was found to be 780 µM (≈ 359 µg/mL). Besides, the IC50 against Coagulation factor XI [8] is 0.067 µM; against Coagulation factor XI [13], 0.009 µM; against Complement factor D it was 0.32 µM; against Plasma kallikrein it was 0.011 µM. The Ratio IC50 in the data set listed under Homo sapiens is 80.
With `CC(C)(O)c1cc(COc2ccccc2CC(=O)O)cc(-c2ccc3c(c2)[C@H](N)CO3)c1`, the Papp entry in [19] is on record as “Bld”. The Vd in data set [20] came out at 0.4 L/kg. This compound also had a clearance in data set [21] of 19 mL/min/kg. In the data set “in vitro”, the Papp B→A is 19 ×10⁻⁶ cm/s. In the data set “physchem”, the thermodynamic solubility was more than 1000 µM. Also, the IC50 came out at 0.17 µM against Coagulation factor XI [8], 0.004 µM on Coagulation factor XI [13], 0.32 µM against Complement factor D and 0.006 µM against Plasma kallikrein. In data set [9], the bioavailability was 3%. Further, in data set [14], the AUC/dose was determined as 186 nM·h. Moreover, the Cmax/dose in data set [22] is 99 nM. In addition, in [23], the half-life was 1.7 h. For the same compound, the Ratio IC50 in the data set filed under Homo sapiens came to 40.
For the compound `CC(C)c1cc(COc2ccccc2CC(=O)O)cc(-c2ccc3c(c2)[C@H](N)CO3)c1`, the IC50 at Coagulation factor VII stood at 5.1 µM; in data set [24], 0.047 µM; in data set [25] it was 5.2 µM; against Prothrombin, 0.09 µM; against Coagulation factor X it was 0.5 µM; against Plasminogen it was 2.6 µM. Also, the IC50 amounted to 0.09 µM in [10]; 0.047 µM in data set [11]; 0.04 µM at Complement factor D; 3.3 µM in data set [28]; 0.17 µM against Coagulation factor IX; 7.2 µM in data set [29]. Moreover, in the data set on Plasma [26], the 2PT came out at 9.9 µM. For the same compound, the Vd in [20] is 0.4 L/kg. For the same compound, the clearance in data set [21] came out at 1 mL/min/kg. The same compound came in with a bioavailability in data set [9] of 100%. The 2aPTT in the data set with Plasma [27] is 2.2 µM. Further, the AUC/dose in [14] is 48927 nM·h. This compound yielded a Cmax/dose in data set [22] of 5263 nM. In [23], the half-life is 5.5 h.

Usually IC50 stands for the point on the concentration scale where inhibition reaches its midpoint. A lower IC50 goes with higher potency. Usually logD stands for the decadic logarithm of the distribution of all forms, ionised or not, between an organic phase and buffer at a given pH. The low end stands for lower lipophilicity, the high end for higher lipophilicity. What is called bioavailability is dose-corrected exposure relative to a reference, in per cent. As usually defined, the Tmax is the time from dosing to the highest level. What is called Papp B→A is the apparent permeability from the basolateral to the apical side of a cell layer. What is called solubility (thermodynamic) is solubility found after equilibrating the solid with the medium.
